Reference: ChEMBL document CHEMBL4673359, “Molecular docking and synthesis of caffeic acid analogous and its anti-inflammatory, analgesic and ulcerogenic studies” (Bioorg Med Chem Lett, 2021)

Assays:
[1] = Acute toxicity in Wistar rat assessed as survival at 100 mg/kg, po administered for 7 days and observed for 14 days; assay type: organism-based; details: in vivo, 336 h, time 14 day
[2] = Acute toxicity in Swiss albino mouse assessed as survival at 100 mg/kg, po administered for 7 days and observed for 14 days; assay type: organism-based; details: in vivo, 336 h, time 14 day
[3] = Ulcerogenic activity in Wistar rat assessed as incidence of gastric ulceration by measuring severity index at 60 mg/kg, po measured after 17 hrs by microscopic analysis; assay type: toxicity, organism-based; details: in vivo
[4] = Acute toxicity in Swiss albino mouse assessed as survival at 200 mg/kg, po administered for 7 days and observed for 14 days; assay type: organism-based; details: in vivo, 336 h, time 14 day
[5] = Acute toxicity in Swiss albino mouse assessed as behavioral changes at 200 mg/kg, po administered for 7 days and observed for 14 days; assay type: organism-based; details: in vivo, 336 h, time 14 day
Rattus norvegicus [6] = experiment: Anti-inflammatory activity in Wistar rat assessed as inhibition of carrageenan-induced paw edema at 20 mg/kg, po administered 1 hr prior to carrageenan stimulation and measured after 3 hrs by plethysmometric method relative to control; assay type: functional; set-up: scale not given: the % may be the effect or the level left; details: time 4 hrs
[7] = Acute toxicity in Swiss albino mouse assessed as behavioral changes at 100 mg/kg, po administered for 7 days and observed for 14 days; assay type: organism-based; details: in vivo, 336 h, time 14 day
[8] = Acute toxicity in Wistar rat assessed as survival at 200 mg/kg, po administered for 7 days and observed for 14 days; assay type: organism-based; details: in vivo, 336 h, time 14 day
[9] = Acute toxicity in Wistar rat assessed as behavioral changes at 100 mg/kg, po administered for 7 days and observed for 14 days; assay type: organism-based; details: in vivo, 336 h, time 14 day
[10] = Acute toxicity in Wistar rat assessed as behavioral changes at 200 mg/kg, po administered for 7 days and observed for 14 days; assay type: organism-based; details: in vivo, 336 h, time 14 day
Mus musculus = experiment: Analgesic activity in Swiss albino mouse assessed as inhibition of acetic acid-induced writhing at 20 mg/kg, po administered 30 mins prior to acetic acid treatment and measured for 20 mins; assay type: functional; set-up: scale not given: the % may be the effect or the level left; details: time 50 min
Rattus norvegicus [11] = experiment: Anti-inflammatory activity in Wistar rat assessed as inhibition of carrageenan-induced paw edema at 20 mg/kg, po administered 1 hr prior to carrageenan stimulation and measured after 4 hrs by plethysmometric method relative to control; assay type: functional; set-up: scale not given: the % may be the effect or the level left; details: time 5 hrs
[12] = molecular target: T1, Prostaglandin G/H synthase 2 (Homo sapiens, UniProt P35354); experiment: Inhibition of COX-2 (unknown origin) assessed as reduction in PGH2 formation using arachidonic acid as substrate preincubated for 5 mins followed by substrate addition and measured after 2 mins by enzyme immunoassay
T1 sequence (P35354 whole entry): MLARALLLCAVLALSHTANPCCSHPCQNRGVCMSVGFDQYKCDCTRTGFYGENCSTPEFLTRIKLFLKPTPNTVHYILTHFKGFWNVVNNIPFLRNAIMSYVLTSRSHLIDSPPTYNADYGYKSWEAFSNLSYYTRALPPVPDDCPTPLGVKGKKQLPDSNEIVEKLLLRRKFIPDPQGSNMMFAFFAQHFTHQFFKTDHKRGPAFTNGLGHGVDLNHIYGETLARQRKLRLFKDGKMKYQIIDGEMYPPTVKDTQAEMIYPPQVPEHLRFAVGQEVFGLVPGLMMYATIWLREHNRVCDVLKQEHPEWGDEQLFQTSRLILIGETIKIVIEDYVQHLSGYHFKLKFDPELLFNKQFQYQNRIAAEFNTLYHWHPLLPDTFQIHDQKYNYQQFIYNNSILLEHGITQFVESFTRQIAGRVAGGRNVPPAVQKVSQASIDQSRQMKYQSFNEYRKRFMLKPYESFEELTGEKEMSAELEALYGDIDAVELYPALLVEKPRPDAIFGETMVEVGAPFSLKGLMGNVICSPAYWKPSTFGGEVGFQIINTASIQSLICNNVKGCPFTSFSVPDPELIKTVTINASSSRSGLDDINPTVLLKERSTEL

[13] = molecular target: Prostaglandin G/H synthase 1 (Homo sapiens, UniProt P23219); experiment: Inhibition of COX-1 (unknown origin) assessed as reduction in PGH2 formation using arachidonic acid as substrate preincubated for 5 mins followed by substrate addition and measured after 2 mins by enzyme immunoassay
Prostaglandin G/H synthase 1, sequence (P23219 whole entry): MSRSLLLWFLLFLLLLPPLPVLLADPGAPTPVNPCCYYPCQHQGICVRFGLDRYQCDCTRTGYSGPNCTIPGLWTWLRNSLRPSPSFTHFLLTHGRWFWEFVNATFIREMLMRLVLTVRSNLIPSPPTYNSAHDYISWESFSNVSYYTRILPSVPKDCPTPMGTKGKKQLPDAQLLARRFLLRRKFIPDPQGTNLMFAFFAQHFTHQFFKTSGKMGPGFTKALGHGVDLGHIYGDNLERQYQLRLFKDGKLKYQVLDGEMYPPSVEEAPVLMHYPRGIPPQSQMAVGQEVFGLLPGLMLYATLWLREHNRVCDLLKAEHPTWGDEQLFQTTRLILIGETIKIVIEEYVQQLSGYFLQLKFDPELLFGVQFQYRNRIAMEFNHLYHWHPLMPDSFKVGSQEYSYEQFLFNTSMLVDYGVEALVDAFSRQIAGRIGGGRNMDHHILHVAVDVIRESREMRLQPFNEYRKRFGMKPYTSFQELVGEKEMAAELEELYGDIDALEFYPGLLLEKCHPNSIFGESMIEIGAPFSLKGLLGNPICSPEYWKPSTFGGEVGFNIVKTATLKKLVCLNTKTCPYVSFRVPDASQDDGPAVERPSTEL

| SMILES | Activity [1] | Activity [2] | Activity_index [3] | Activity [4] | Activity [5] | Activity (Rattus norvegicus [6]) [%] | Activity [7] | Activity [8] | Activity [9] | Activity [10] | Activity (Mus musculus) [%] | Activity (Rattus norvegicus [11]) [%] | IC50 [12] [µM] | IC50 [13] [µM] |
| --- | --- | --- | --- | --- | --- | --- | --- | --- | --- | --- | --- | --- | --- | --- |
| Cc1ccccc1OCC(=O)NNC(=O)/C=C/c1ccc(O)c(O)c1 | Non-Toxic | Non-Toxic | 0.58 | Non-Toxic | Non-Toxic | 54.96 | Non-Toxic | Non-Toxic | Non-Toxic | Non-Toxic | 49.18 | 49.83 | – | – |
| Cc1ccc(-c2cc(C(F)(F)F)nn2-c2ccc(S(N)(=O)=O)cc2)cc1 [CELECOXIB] | – | – | – | – | – | 78 | – | – | – | – | 73.53 | 74.56 | – | – |
| O=C(/C=C/c1ccc(O)c(O)c1)NNC(=O)COc1ccc(Cl)cc1 | Non-Toxic | Non-Toxic | 0.76 | Non-Toxic | Non-Toxic | 75.17 | Non-Toxic | Non-Toxic | Non-Toxic | Non-Toxic | 67.85 | 72.29 | 3.17 | 214 |
| O=C(/C=C/c1ccc(O)c(O)c1)NNC(=O)COc1cccnc1 | Non-Toxic | Non-Toxic | 0.4 | Non-Toxic | Non-Toxic | 63.96 | Non-Toxic | Non-Toxic | Non-Toxic | Non-Toxic | 53.41 | 60.82 | 5 | 182 |
| Cc1ccc(OCC(=O)NNC(=O)/C=C/c2ccc(O)c(O)c2)c(C)c1 | Non-Toxic | Non-Toxic | 0.26 | Non-Toxic | Non-Toxic | 67.18 | Non-Toxic | Non-Toxic | Non-Toxic | Non-Toxic | 45.21 | 64.45 | 2.1 | 107 |
| O=C(/C=C/c1ccc(O)c(O)c1)NNC(=O)COc1ccc(Br)cc1 | Non-Toxic | Non-Toxic | 0.78 | Non-Toxic | Non-Toxic | 74.9 | Non-Toxic | Non-Toxic | Non-Toxic | Non-Toxic | 71.35 | 71.15 | 3.4 | 233 |
| O=C(/C=C/c1ccc(O)c(O)c1)NNC(=O)COc1ccc2ccccc2c1 | Non-Toxic | Non-Toxic | 0.57 | Non-Toxic | Non-Toxic | 51.61 | Non-Toxic | Non-Toxic | Non-Toxic | Non-Toxic | 65.1 | 48.7 | – | – |
| O=C(/C=C/c1ccc(O)c(O)c1)NNC(=O)COc1cccc2cccnc12 | Non-Toxic | Non-Toxic | 0.53 | Non-Toxic | Non-Toxic | 66.61 | Non-Toxic | Non-Toxic | Non-Toxic | Non-Toxic | 57.3 | 61.47 | 4.9 | 126 |
| Cc1ccc2cccc(OCC(=O)NNC(=O)/C=C/c3ccc(O)c(O)c3)c2n1 | Non-Toxic | Non-Toxic | 0.57 | Non-Toxic | Non-Toxic | 57.19 | Non-Toxic | Non-Toxic | Non-Toxic | Non-Toxic | 49.02 | 53.15 | – | – |
| Cc1ccc(OCC(=O)NNC(=O)/C=C/c2ccc(O)c(O)c2)cc1 | Non-Toxic | Non-Toxic | 0.38 | Non-Toxic | Non-Toxic | 58.71 | Non-Toxic | Non-Toxic | Non-Toxic | Non-Toxic | 64.68 | 55.53 | – | – |
| O=C(/C=C/c1ccc(O)c(O)c1)NNC(=O)COc1cccc2ccccc12 | Non-Toxic | Non-Toxic | 0.46 | Non-Toxic | Non-Toxic | 49.96 | Non-Toxic | Non-Toxic | Non-Toxic | Non-Toxic | 50.7 | 44.45 | – | – |
